Laboratory results as given in patent EP0166609A2, “Aryl derivatives of heterobicyclic compounds” (THE WELLCOME FOUNDATION LIMITED, priority 1984, dated 1986).

Tested on: anaesthetised, open-chest beagle dogs
Assay: in vivo inotropic and vasodilatory activity, bolus intravenous injection
Settings: for ED30 / ED50: Canis lupus familiaris, bolus intravenous injection; for ED30: read-out: ED30D.B.P. (effective intravenous dose to produce a 30% decrease in diastolic blood pressure); for ED50: read-out: ED50L.V. dP/dt (effective intravenous dose of compound to produce a 50% increase in L.V. dP/dt); for Selectivity ED50L.V. dP/dt / ED30D.B.P. / Tr (duration of inotropic response): intravenous; for Tr (duration of inotropic response): time in which a 50% increase in L.V. dp/dt would return to pre-dose levels
Method: Determination of in vivo Inotropic and Vasodilatory Activity Compounds according to the present invention were tested in vivo in comparison with the compound 2-(2-methoxy-4-methylsulphinylphenyl)imidazo[1,2-a]pyrazine (hereinafter referred to as compound 'X' disclosed in UK patent specification No. 2 132 203 A. The compounds were tested in anaesthetised, open-chest beagle dogs by bolus intravenous injection to produce a dose-related positive inotropic stimulation (as measured by the increase in the maximum rate of change of the left ventricular pressure -,L.V. dp/dt) over the dose range of 0.003 - 3.0 mg/kg. This was accompanied by a dose-related increase in aortic blood flow, and a fall in systemic blood pressure (see Table below). In these preparations, the duration of inotropic response was estimated by measuring the time in which a 50% increase in L.V. dp/dt would return to pre-dose levels. The duration is shown in the table below and for some of the compounds is given as a range. [table]

SMILES | ED30 | ED50 | Selectivity ED50L.V. dP/dt / ED30D.B.P. | Tr (duration of inotropic response)
COc1cc(C(N)=O)ccc1-c1cn2ccncc2n1 [Example 1, 2-(2-Methoxy-4-carbamoylphenyl)-imidazo[1,2-a]pyrazine] | 0.05 mg/kg | 0.02 mg/kg | 0.4 | >30 min
COc1cc([S+](C)[O-])ccc1-c1cn2ccnc(OC)c2n1 (stereo not drawn) [Example 3, 8-methoxy-2-(2-methoxy-4-methylsulphinylphenyl)imidazo[1,2-a]pyrazine] | 1.17 mg/kg | 0.91 mg/kg | 0.08 | 60 min
COc1cc(OS(C)(=O)=O)ccc1-c1cn2ccnc(OC)c2n1 [Example 4, 8-methoxy-2-(2-methoxy-4-methylsulphonyloxyphenyl)imidazo[1,2-a]pyrazine] | 0.06 mg/kg | 0.07 mg/kg | 1.22 | 45 to 60 min
COc1cc(C(N)=O)ccc1-c1cn2ccnc(OC)c2n1.Cl [Example 5, 2-(2-methoxy-4-carbamoylphenyl)-8-methoxy-imidazo[1,2-a]pyrazine hydrochloride] | 0.15 mg/kg | 0.06 mg/kg | 0.39 | 30 to 45 min
COc1cc(C(C)=O)ccc1-c1cn2ccncc2n1 [Example 7, 2-(2-methoxy-4-acetylphenyl)imidazo[1,2-a]pyrazine] | 0.1 mg/kg | 0.03 mg/kg | 0.30 | 10 min
COc1cc([S+](C)[O-])ccc1-c1cn2ccncc2n1 (stereo not drawn) [X, 2-(2-methoxy-4-methylsulphinylphenyl)imidazo[1,2-a]pyrazine, reference compound] | 0.028 mg/kg | 0.75 mg/kg | 26.8 | 5 min
